According to US9670227B2, “Thienopyrimidine derivatives, a process for their preparation and pharmaceutical compositions containing them” (LES LABORATOIRES SERVIER, priority 2013, dated 2017):
Where two headings read alike, the source gives them in different places.

Molecular target: Mcl-1 protein (UniProtKB primary accession number: Q07820) (Homo sapiens, UniProt Q07820)
Assay: Inhibition of Mcl-1 by fluorescence polarisation, Method 1
Type: binding
Conditions: for IC50: read-out: IC50 (M) Mcl-1 FP
Method in brief: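 Buffer of 10 mM HEPES pH 7.4 with 150 mM NaCl and 0.05% Tween 20 held 5 nM Mcl-1 and 1 nM fluorescein-tagged ligand (final). Compounds were tested as 11-point serial dilutions at 5% final DMSO, and binding was read by FP.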

[1] = fluorescence polarisation, Method 1, or Method 2

Mcl-1 protein, sequence (Q07820 whole entry): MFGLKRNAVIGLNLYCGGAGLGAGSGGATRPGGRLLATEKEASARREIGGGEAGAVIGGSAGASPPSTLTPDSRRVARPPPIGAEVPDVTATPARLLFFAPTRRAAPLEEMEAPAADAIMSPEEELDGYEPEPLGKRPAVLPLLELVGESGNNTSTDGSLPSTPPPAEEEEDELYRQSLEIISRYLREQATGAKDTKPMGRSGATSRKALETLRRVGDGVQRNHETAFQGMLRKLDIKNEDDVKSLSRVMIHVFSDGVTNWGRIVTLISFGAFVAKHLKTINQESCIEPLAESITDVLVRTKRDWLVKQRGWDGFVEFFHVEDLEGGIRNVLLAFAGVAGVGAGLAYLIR

Row | Structure (SMILES) | IC50 [1] [M] | also measured
1 | CCOC(=O)C(Cc1ccccc1OCc1ccnn1C(C)(C)C)Oc1ncnc2sc(-c3ccc(F)cc3)c(-c3ccc(OCCN4CCN(C)CC4)c(Cl)c3C)c12 [Example 791, ethyl (2R)-3-{2-[(1-tert-butyl-1H-pyrazol-5-yl)methoxy]phenyl}-2-{[(5Sa)-5-{3-chloro-2-methyl-4-[2-(4-methylpiperazin-1-yl)ethoxy]phenyl}-6-(4-fluorophenyl)thieno[2,3-d]pyrimidin-4-yl]oxy}propanoate] | 2.26e-06 | 
2 | Cc1nc(-c2sc3ncnc(OC(Cc4ccccc4)C(=O)O)c3c2-c2ccc(OCCN3CCN(C)CC3)c(Cl)c2C)cs1 [Example 515, (2R)-2-{[(5Sa)-5-{3-chloro-2-methyl-4-[2-(4-methylpiperazin-1-yl)ethoxy]phenyl}-6-(2-methyl-1,3-thiazol-4-yl)thieno[2,3-d]pyrimidin-4-yl]oxy}-3-phenylpropanoic acid] | 8.4e-08 | 
3 | CCOC(=O)[C@@H](Cc1ccccc1OCc1cnccn1)Oc1ncnc2sc(-c3ccc(F)cc3)c(-c3ccc(OCCN4CCN(C)CC4)c(Cl)c3C)c12 [Example 631, ethyl (2R)-2-{[(5Sa)-5-{3-chloro-2-methyl-4-[2-(4-methylpiperazin-1-yl)ethoxy]phenyl}-6-(4-fluorophenyl)thieno[2,3-d]pyrimidin-4-yl]oxy}-3-[2-(pyrazin-2-ylmethoxy)phenyl]propanoate] |  | percentage fluorescence polarisation inhibition, Mcl-1 FP (partial inhibitors, @ 10 uM test compound): 56% @ 10 uM
4 | CCc1sc2ncnc(OC(Cc3ccccc3)C(=O)O)c2c1-c1ccc(OCCOC)c(Cl)c1C [Example 424, (2R)-2-({(5Sa)-5-[3-chloro-4-(2-methoxyethoxy)-2-methylphenyl]-6-ethylthieno[2,3-d]pyrimidin-4-yl}oxy)-3-phenylpropanoic acid] | 9.6e-08 | 
5 | C=C(C)c1sc2ncnc(O[C@H](Cc3ccccc3)C(=O)O)c2c1-c1cccc(Cl)c1C (single isomer, unassigned) [Example 719] | 2.7e-06 | 
6 | CCOC(=O)C(Cc1ccccc1OCc1ccnc(-c2ccccc2F)n1)Oc1ncnc2sc(-c3ccc(F)cc3)c(-c3ccc(OCCN(C)CC)c(Cl)c3C)c12 [Example 801, ethyl (2R)-2-{[(5Sa)-5-(3-chloro-4-{2-[ethyl(methyl)amino]ethoxy}-2-methylphenyl)-6-(4-fluorophenyl)thieno[2,3-d]pyrimidin-4-yl]oxy}-3-(2-{[2-(2-fluorophenyl)pyrimidin-4-yl]methoxy}phenyl)propanoate] |  | IC50 (fluorescence polarisation test, Method 1, or Method 2 where the value is underlined (underlining not visible)): 4.37e-06 M
7 | COc1ccccc1CC(Oc1ncnc2sc(-c3ccco3)c(-c3ccc(OCC4CNCCO4)c(Cl)c3C)c12)C(=O)O [Example 315, (2R)-2-({(5Sa)-5-[3-chloro-2-methyl-4-(morpholin-2-ylmethoxy)phenyl]-6-(furan-2-yl)thieno[2,3-d]pyrimidin-4-yl}oxy)-3-(2-methoxyphenyl)propanoic acid] |  | IC50 (fluorescence polarisation test, Method 2 values are underlined in the patent (underlining not visible here)): 2.2e-08 M

Now from value to compound, other results behind:

Row | IC50 [1] [M] | Structure (SMILES) | also measured
8 | 8.24e-09 | Cc1c(-c2c(-c3ccc(F)cc3)sc3ncnc(O[C@H](Cc4ccccc4OCc4ccnc(-c5ccccc5O)n4)C(=O)O)c23)ccc(OCCN2CCNCC2)c1Cl [Example 749, (2R)-2-{[(5Sa)-5-{3-chloro-2-methyl-4-[2-(piperazin-1-yl)ethoxy]phenyl}-6-(4-fluorophenyl)thieno[2,3-d]pyrimidin-4-yl]oxy}-3-(2-{[2-(2-hydroxyphenyl)pyrimidin-4-yl]methoxy}phenyl)propanoic acid] | 
9 | 7.5e-09 | CCc1sc2ncnc(OC(Cc3ccccc3)C(=O)O)c2c1-c1cc(Cl)c(O)c(Cl)c1C [Example 428, (2R)-2-{[(5Sa)-5-(3,5-dichloro-4-hydroxy-2-methylphenyl)-6-ethylthieno[2,3-d]pyrimidin-4-yl]oxy}-3-phenylpropanoic acid] | 
10 | 7.6e-08 | C=Cc1sc2ncnc(OC(Cc3ccccc3)C(=O)O)c2c1-c1cccc(Cl)c1C [Example 721, (2R)-2-{[(5Sa)-5-(3-chloro-2-methylphenyl)-6-ethenylthieno[2,3-d]pyrimidin-4-yl]oxy}-3-phenylpropanoic acid] | 
